For test [1], the system named is HT29PAR cells. The experiment in a line: Cell viability assay (MTT / CCK-8), drug-sensitive HT29. Format: cell-based, human. The method, then:
(§1) Cells were seeded at a density of 0.2–1 × 10^4 cells/well into 96-well plates. One day after seeding, treatments were performed in triplicate for 72 h, or as otherwise indicated in the relevant panel/figure legend and kept at 37 °C/5% CO2. Growth medium alone (“untreated” cells) or DMSO was used as a control.
(§2) For MTT assays, media were replaced at the final timepoint with 100 μL of 1:10 MTT reagent (0.5 mg/mL in PBS) diluted in growth medium, and plates were incubated for 3 h. A total of 100 μL/well of stop buffer (50 g Sodium Dodecyl Sulfate, 245 mL ddH2O, 5 mL 1N HCl) was added and plates incubated for 24 h to let colored formazan crystals develop. Optical densities (ODs) were measured with a PowerWave^TM Microplate spectrophotometer (BioTek, Winooski, VT, USA) at 570 nm and 670 nm (background).
(§3) For CCK-8 assays, 100 μL of 1:10 CCK-8 reagent (pevonedistat-treated HT29 cells) diluted in medium was added to each well and cells incubated for 1–2 h at 37 °C. OD values were measured at 450 nm with a VersaMax microplate spectrophotometer (Molecular Devices, San Jose, CA, USA).
(§4) Background values were subtracted prior to further analysis. The percentage of cell viability was expressed as relative values versus untreated cells as determined by the various assays. EC50/IC50 values were calculated using GraphPad Prism (v10.4.1) and the in-built non-linear regression [log (inhibitor) vs. response—variable slope (four parameters)] calculation. For determination of synergy scores, the online tool SynergyFinder+ (https://synergyfinder.org access date 15 February 2025) was employed following 4 × 4- or 6 × 6-matrix dose-escalation cell viability experiments. Doses of drugs are indicated in the relevant figure legends and ranges have been chosen based on the response of cells to single-drug dose-dependent experiments. Synergy scores were calculated using the ZIP model, which takes the advantages of both the Loewe additivity and the Bliss independence models, aiming at a systematic assessment of various types of drug interaction patterns that may arise in a high-throughput drug combination screening.

The subject of test [2] is HT29SN-38 cells. The experiment in a line: Cell viability assay (MTT / CCK-8), SN-38-resistant HT29. Format: cell-based, human. As for the experimental part: as §1, §2, §3, §4
In test [3] the test system is HT29SN-38 cells. As to the kind of experiment: Cellular dye efflux assay (Hoechst 33342), resistant cells. The class given is cell-based, human. The settings on record: SCO-101 20 µM, Ko-143 1 µM, PSC833 1 µM. As for the experimental part: (§5) Twenty-four hours before the experiments, cells were seeded into 96-well Nunclon^TM plates at a density of 6000 (HT29), 7000 (PANC-1) or 8000 (LoVo) cells/well. The following day, cells were treated in triplicate with the relevant drugs at the indicated concentrations for 1 h. Next, 5 μg/mL Hoechst 33342 was added to the wells, and plates incubated at 37 °C for 30 min^−1 h. Cells were washed with cold PBS, treatments re-added and plates re-incubated at 37 °C for 30 min to 1 h. Plates were analyzed using a Celigo® (Nexcelom Bioscience, Lawrence, MA, USA) imaging cytometer. Data are expressed as percentages of fluorescence intensity, calculated through the following formula: % fluorescence intensity=Mean fluorescence intensity of sample/Mean fluorescence intensity of parental control×100
(§6) Fluorescent images were captured with an Olympus® IX71/TH4-200 microscope equipped with an Olympus® DP72 camera (Shinjuku, Tokyo, Japan), and cells were seeded at a 1.5 × 10^5 cells/well density and treated as described above.

The subject of another test is HL-60ABCG2 cells. As to the kind of experiment: Cell viability assay, ABCG2-expressing HL-60. The class given is cell-based. The settings on record: Homo sapiens, 96 h. The method, then: as §1, §4
Test [4] relates to HT29SN-38 cells. As to the kind of experiment: 3H-SN-38 uptake in cell monolayers. The class given is cell-based, human. The following applies: HT29SN-38 monolayers; for cellular accumulation of 3H-SN-38: SCO-101 25 µM, Ko-143 0.5 µM, ZSQ 0.5 µM, vs control (HBSS). The method, then: Cells were seeded at a density of 1.8 × 10^4 cells/well in 96-well plates and sub-cultured for 48 h. Drugs were dissolved in HBSS transport buffer (HBSS, 0.05% BSA, 10 mM HEPES, pH 7.4) at different concentrations. All treatments were investigated in technical triplicates. On the day of the experiments, the culture medium was exchanged with 100 μL transport buffer and cells incubated for 15 min at 37 °C. Next, the blank transport buffer was exchanged with 50 μL transport buffer containing the different compounds (2X of final concentrations) and incubated for an additional 15 min at 37 °C. The uptake experiment was started by adding 50 μL of 2 μCi/mL ^3H-SN38 and stopped after 15 min of incubation at 37 °C by removing the transport buffer from all wells. Cell monolayers were washed twice by adding/removing ice-cold transport buffer and lysed for 15 min at RT in 100 μL 0.1% TritonX-100. Cell lysates were transferred to scintillation vials containing 2 mL of scintillation fluid (Ultima Gold, PerkinElmer). Each well was washed with 100 μL purified water (milliQ), which was also transferred to respective scintillation vials. The radioactivity in each scintillation vial was measured by means of scintillation counting (Tri-Carb 2910 TR, PerkinElmer, Waltham, MA, USA).

The subject of test [5] is HT29PAR cells. As to the kind of experiment: Cellular dye efflux assay (Hoechst 33342), parental cells. The class given is cell-based, human. The settings on record: SCO-101 20 µM, Ko-143 1 µM. As for the experimental part: as §5, §6
Another test concerns HL-60PAR cells. As to the kind of experiment: Cell viability assay, HL-60 parental. Format: cell-based. The settings on record: Homo sapiens, 96 h. The method, then:
as §1, §4

pEC50, pIC50: −log10 of the molar value.

As a reminder, the pIC50 is −log10 of the IC50, conventionally taken in molar units. Usually pEC50 stands for the EC50 on a negative log10 scale, so that one unit is a factor of ten.

Regarding `CCc1c2c(nc3ccc(O)cc13)-c1cc3c(c(=O)n1C2)COC(=O)[C@]3(O)CC` [SN-38, reference compound], the pIC50 in the test on HT29PAR cells [1] (72 h) was 6.80; in the test on HT29SN-38 cells [2] (72 h) it was 5.14. Further, the “cell viability after 24 h single treatment and drug washout” value in the test with HT29SN-38 cells [2] (SCO-101 15 μM or SN-38 0.5 μM alone, washout 48 h or 120 h) is listed as “did not affect cell viability”.
For `C/C=C/C[C@@H](C)C(=O)[C@H]1C(=O)N[C@@H](C(C)C)C(=O)N(C)CC(=O)N(C)[C@@H](CC(C)C)C(=O)N[C@@H](C(C)C)C(=O)N(C)[C@@H](CC(C)C)C(=O)N[C@@H](C)C(=O)N[C@H](C)C(=O)N(C)[C@@H](CC(C)C)C(=O)N(C)[C@@H](CC(C)C)C(=O)N(C)[C@@H](C(C)C)C(=O)N1C` [PSC833], the H33342 dye accumulation entry in the test with HT29SN-38 cells [3] is reported as “No change”.
In the case of `CC[C@@]1(O)C(=O)OCc2c1cc1n(c2=O)Cc2cc3c(CN(C)C)c(O)ccc3nc2-1` [topotecan], the negative logarithm of the IC50 (pIC50) is 7.22 with HT29PAR cells [1] (Homo sapiens, HT-29, 72 h); 5.87 in the test on HT29SN-38 cells [2] (Homo sapiens, HT-29, 72 h); below 6.00 in the test with HL-60ABCG2 cells.
Regarding `O[C@@H](COc1cccc2ncccc12)CN1CCN([C@@H]2c3ccccc3[C@@H]3[C@H](c4ccccc42)C3(F)F)CC1` [ZSQ], the “cellular accumulation of 3H-SN-38” value in the test on HT29SN-38 cells [4] is “did not alter”.
As for `COc1ccc2c3c([nH]c2c1)[C@H](CC(C)C)N1C(=O)[C@H](CCC(=O)OC(C)(C)C)NC(=O)[C@@H]1C3` [Ko-143], the results for the H33342 dye accumulation entry in the test with HT29SN-38 cells [3] and with HT29PAR cells [5] were “restored” and “No change”, respectively. The “cellular accumulation of 3H-SN-38” value with HT29SN-38 cells [4] was “increased”. Further, in the test on HT29SN-38 cells [4] (read-out: EC50, 3H-SN-38 uptake (regarded as IC50 of ABCG2 inhibition)), the pEC50 was 7.15.
Consider `NS(=O)(=O)OC[C@@H]1C[C@@H](n2ccc3c(N[C@H]4CCc5ccccc54)ncnc32)C[C@@H]1O` [pevonedistat], for which the pIC50 in the test with HT29PAR cells [1] (Homo sapiens, HT-29, 72 h) was 6.89; in the test on HT29SN-38 cells [2] (Homo sapiens, HT-29, 72 h), 5.49; in the test with HL-60PAR cells, 8.27; with HL-60ABCG2 cells it was below 6.00.
For `O=C1c2c(O)ccc(O)c2C(=O)c2c(NCCNCCO)ccc(NCCNCCO)c21` [mitoxantrone], the figures for the pIC50 with HL-60PAR cells and in the test with HL-60ABCG2 cells were 7.40 and 6.24, respectively.

(Values after publication PMC12027554, “Inhibition of ABCG2 by SCO-101 Enhances Chemotherapy Efficacy in Cancer” (International Journal of Molecular Sciences, 2025).)
